Laboratory results reported in patent US6348488B1, “Remedies for motor dysfunction and GAPDH expression inhibitors” (Ono Pharmaceutical Co., Ltd., priority 1998, dated 2002).

What was measured:
[1] = tested on: spinal cord impact model; test: Motor dysfunction inhibitory action in spinal cord impact model (treadmill maximum walking distance); assay type: in vivo, rat
Description: A male Wistar rat (about 250 g) was placed in a supine position under anesthesia with sodium pentobarbital (40 mg/kg, i.p.). After partial laminectomy to remove the fifth lumber spine, a silicon rubber (height: 1 mm, length: 4 mm, and width: 1.25 mm) was inserted in the fourth and sixth lumber spines.
After the operation, the maximum walking distance was measured using a treadmill on Day 1, 2, 3, 5, 7 and 14.
That is, the treadmill was run at a speed starting from 10 m/min, with an increment at a rate of 5 m/min every 3 minutes thereafter until the time when the animal dropped from the walking belt and could not walk any further. The walking distance was calculated from the time when the animal could not walk any further.

[2] = tested on: spinal cord injury crush lesion model; test: Motor dysfunction in spinal cord injury (crush lesion model, modified Tarlov scale); assay type: in vivo, rat; details: 10 mg/kg, versus vehicle control group
Description: A male Wistar rat (about 250 to 300 g) was subject to dorsal median incision and laminectomy to remove thoracic spine (T11) under anesthesia with sodium pentobarbital and then the dura mater was exposed. A metal pole (diameter: 3 mm, length: 40 mm, weight: 3.8 g) was placed on the dura mater and a load of 10 g was dropped from a height of 10 cm through a cylinder to prepare a crush lesion model. Thereafter, the muscle layer and skin were sutured. The behavioral deficit was evaluated using modifications of Tarlov scale. That is, the evaluation was made based on mean scores of both hind legs according to the following scores. Neurologic scores: 0 Complete paralysis of hind legs 1 Slight movements of hind legs were observed. 2 Movements of hind legs were clear but the body weight could not be supported so that autonomic movement was impossible. 3 The animal crept and could not support the body weight. 4 The animal could support the body weight when standing or walking. However, clearly disabled. 5 Posture and walking ability are close to those of normal animals.

[3] = tested on: cerebellar granule cells (CGC); test: cells; assay type: cell-based; details: for Age-induced apoptosis of CGC: added at 7 DIV, agent 0.03 μM, THA 10 μM
Description: A) Preparation of primary culture cerebellar granule cells (CGC)
According to the method by Ishitani et al., CGC was prepared as follows (Ishitani et al., J. Neurochem., 66:928-35, 1996).
Cerebellum was excised from an 8-day old Sprague-Dawley rat and cut to 0.4 mm square cubes using Mcllawin tissue chopper. Further, the cubes were digested at 37° C. for 15 minutes in a 0.025% trypsin-containing Krebs phosphate buffer (KPB).
After the reaction was stopped with KPB containing 0.008% soybean trypsin inhibitor and 0.0016% deoxyribonuclease I, the digested cubes were triturated in KPB containing 0.01% deoxyribonuclease I and 0.05% soybean trypsin inhibitor using a convergent Pasteur pipette to obtain dispersed CGC.
The cells were suspended in a basal modified Eagle's medium (BME) containing 10% fetal calf serum (FCS), 2 mM glutamine, 50 μg/ml gentamycin and 25 mM potassium chloride (KCl), and seeded on a plastic dish (35 mm) coated with poly-L-lysine (molecular weight: 3-7×10^4, 100 μg/ml) to a cell density of 2.1×10^5 live cells/cm^2.
Under 5% carbon dioxide (CO2), culture was started at 37° C. and after 18 to 24 hours cytosine arabinofuranoside (10 μM) for preventing the growth of non-neuronal cells was added and culture was continued. At 7 DIV (days in vitro), various chemicals were added and thereafter, culture was continued in the same medium.
B) Measurement of viability by live double staining method with FDA-PI
CGC after desired culture days was washed twice with 2 ml of Locke's solution (154 mM NaCl, 5.6 mM KCl, 2.3 mM CaCl2, 1.2 mM MgSO4, 5 mM HEPES, 5.6 mM glucose, 3.6 mM NaHCO3, pH 7.4) and then stained with 0.0008% fluorescein diacetate (FDA) and 0.0002% propidium iodide (PI) for 3 to 5 minutes.
Fluorescent observation was performed using epi-illuminated fluorescent microscope (Olympus, IMT2-RFL) equipped with a dichroic mirror for B excitement (IMT2-DMB), an auxiliary excitation filter (EY455) and an auxiliary filter (O530).
FDA was decomposed by an esterase in the living cells to emit fluorescence (fluorescein) from green to yellow fluorescence, on the other hand PI permeates through dead cell membranes and binds with DNA to emit from red to brown fluorescence, so that the both fluorescences can be observed simultaneously using the above-described fluorescence microscopy.
Viability was calculated according to the following formula.
Viability=[FDA stained cell number/(FDA stained cell number+PI stained cell number)]×100

[4] = tested on: GAPDH mRNA; test: GAPDH mRNA expression in CGC, Northern blotting analysis; assay type: cell-based, rat; details: addition at 7 DIV; measured at 15 DIV (CGC)
Description: Preparation of the primary culture cerebellar granule cells (CGC) was performed in accordance with Test Example 3 A).
Then, according to the method of Fukamauchi et al., total RNA was extracted from CGC of the desired culture day number. The total RNA (9 μg/lane) was electrophoresed on 1.2% agarose formaldehyde gel and transferred to a nylon membrane (Hybond-N, Amersham). Thereafter, it was subjected to prehybridization at 42° C. for 3 to 5 hours in a solution containing 5×Denhardt's solution (0.1% Ficol 400, 0.1% polyvinyl pyrrolidone, 0.1% BSA), 50% formamide, 50 μg/ml salmon testis DNA, and 0.5% SDS (Fukamauchi et al., J. Neurochem., 56:716-9, 1991, Sunaga et al., Neurosci. Lett., 163:27-30, 1993).
Using a Multi prime DNA labelling kit (Amersham), human GAPDH cDNA probe (Clontech, Palo Alto, Calif., U.S.A.) labeled with [α-^32P] deoxycytidine 5′-triphosphate (3,000 Ci/mm pl) was thermally denatured and thereafter added to the prehybridization solution, followed by hybridization at 42° C. for 24 hours.
The membrane was fully washed at 60° C. for 10 minutes in 0.1% SDS containing 0.1×SSC ([…], pH 7.0), exposed on a high-sensitivity X-ray film (IPSO 3000, Fuji) to prepare an autoradiogram. Quantitative analysis was performed using a CCD type image analyzer (BIOPROFIL, M&S).

[5] = tested on: GAPDH protein; test: GAPDH protein expression in CGC, SDS-PAGE and Western blotting analyses; assay type: cell-based, rat; details: process of age-induced cell death
Description: The cultured cells of the desired culture day number were washed three times with 2 ml of PBS and then stripped off by a rubber policeman and the cells were recovered by centrifugation at 188×G at 4° C. for 5 minutes. The cells were resuspended in ice-cooled 50 mM Tris-HCl buffer (pH 7.4) and the cell membranes were destroyed by sonication.
The homogenate was centrifuged at 2×10^5×G at 4° C. for 30 minutes to obtain a precipitate (insoluble fraction (pellet)), which was resuspended in the same buffer and then was subjected to quantitative determination of protein together with the supernatant (soluble “supernatant”). […]
The gel after the electrophoresis was stained with 0.1% Coomassie blue. The quantitative analysis of the amount of 38-kDa protein band was performed using a CCD type image analyzer (BIOPROFIL, N&S). […]
The PDVF membrane after the transcription was treated in 0.5% skim milk containing TBS-T (20 mM Tris, 137 mM NaCl, 0.05% Tween 20, pH 7.4) for 60 minutes to effect blocking, and then was allowed to react at room temperature for 60 minutes in TBS-T containing primary antibody (anti-rabbit GAPDH monoclonal antibody diluted to 1:15000). […] After washing the PVDF membrane, quantitative determination of GAPDH protein was performed on a high-sensitivity X-ray film using a detector for chemiluminescence (Renaissance TM, NEN).

[6] = Acute toxicity, rat, intravenous administration; assay type: in vivo
[7] = tested on: 30 types or more of surface receptors inclusive of overactivated NMDA receptors; test: Influence on surface receptors in age-induced apoptosis of CGC

O=C[C@@H]1CCCN1C(=O)CCC(=O)NCc1ccc(Cl)cc1 [Agent of invention, N-[3-[N-(4-chlorophenylmethyl)carbamoyl]propanoyl]-L-prolinal]
Maximum Walking Distance ([1]; 1 mg/Kg, Day 2 after administration): 237 ± 49 m
Maximum Walking Distance ([1]; 1 mg/Kg, Day 4 after administration): 414 ± 58 m
Maximum Walking Distance ([1]; 1 mg/Kg, Day 11 after administration): 347 ± 77 m
Maximum Walking Distance ([1]; 10 mg/Kg orally, Day 2 after administration): 329 ± 15 m
Maximum Walking Distance ([1]; 10 mg/Kg orally, Day 4 after administration): 455 ± 34 m
Maximum Walking Distance ([1]; 10 mg/Kg orally, Day 11 after administration (day 14 after operation)): 408 ± 30 m
Maximum Walking Distance ([1]; 10 mg/Kg orally, Day 11 after administration (day 14 after operation), listed as N-[3-[N-(4-chlorophenylmethyl)carbamoyl]propanoyl]-L-prolinal): 408±30 m
Influence on the autonomic movement and sensitivity to pain ([1]; rat, spinal cord impact model): no influence
Degree of recovery of motor dysfunction (neurologic score) ([2]; day 9 up to day 21 of the operation): tended to be superior as compared with the vehicle control group
Change in body weight after the operation [2]: tended to be superior to the vehicle control group
viability at 0.03 µM ([3]; Rattus norvegicus, 0.03 μM added at 7 DIV, at 17 DIV): 92 ± 4.4%
Age-induced apoptosis of CGC [3]: inhibited
Concentration exhibiting a protective action to neurons ([3]; at 17 DIV): several
Increase in GAPDH mRNA [4]: completely inhibited
Increase in the 38-kDa protein (GAPDH) in cell membrane fraction [5]: inhibited the increase
Acute toxicity (LD50) [6]: 200 mg/kg body weight
Influence on surface receptors [7]: no influence

Nc1c2c(nc3ccccc13)CCCC2 [THA, 9-amino-1,2,3,4-tetrahydroacridine, reference compound]
Inhibition of the cell death ([3]; 1 μM): about 30%
Inhibition of the cell death ([3]; 10 μM): almost completely
Age-induced apoptosis of CGC [3]: inhibited
